From PMC11720742, “The Ivermectin Related Compound Moxidectin Can Target Apicomplexan Importin α and Limit Growth of Malarial Parasites” (Cells, 2025)
Values joined by “and” are separate entries in the source; they are usually repeats but may differ in a detail not shown here. Equal entries are not always repeated. Where two headings read alike, the source gives them in different places.

What was measured:
MmIMPα [1] = molecular target: T1, MmIMPα (Mus musculus, UniProt P52293); assay: Far-UV CD spectroscopy, MmIMPα; assay type: binding; details: 30 or 80 μM compound
T1 construct: GST; made in house
Description: (§1) CD spectroscopy experiments were carried out to assess direct binding of moxidectin and ivermectin to different IMPαs as described. CD spectra at […] protein concentration were recorded from 200–260 nm using a Jasco CD spectrometer (Jasco, Easton, MD, USA) in the absence and presence of 30 or 80 μM ivermectin or moxidectin, with percentage α-helix content estimated from the ellipticity at 222 nm as described using the CD Multivariate secondary structure estimation analysis program.

MmΔIBBIMPα:T-ag-NLS-GFP = molecular target: T2, MmΔIBBIMPα:T-ag-NLS-GFP (Mus musculus, UniProt P52293); assay: AlphaScreen binding assay, inhibition of MmΔIBBIMPα binding to T-ag-NLS-GFP
T2 construct: made in house

PfIMPα:MmIMPβ1 = PfIMPα:MmIMPβ1 (Plasmodium falciparum, UniProt Q8IAW0); assay: AlphaScreen binding assay, inhibition of PfIMPα binding to MmIMPβ1
Description: (§2) IC50 analysis was performed in quadruplicate using an AlphaScreen binding assay as previously, using bacterially expressed glutathione S-transferase (GST)-C-terminally tagged PfIMPα and TgIMPα proteins, as well as SV40 T-ag-NLS-GFP fusion protein and MmIMPβ1 [11, 41]. As previously, nickel-acceptor and streptavidin-donor beads were used. The AlphaScreen signal was measured on a Perkin Elmer plate reader, and IC50 plots drawn using GraphPad Prism 9.0.2 (San Diego, CA, USA).
(§3) Non-linear regression analysis was performed in GraphPad Prism 9.2.0 (San Diego, CA, USA) to fit four parameter dose–response curves using the formula: y = a + ((b − a)/(1 + 10^(Log(c) − x) × d)), where a and b are the minimum and maximum asymptotes respectively, c is the half-maximal inhibitory concentration value (IC50), and d is the slope at the steepest part of the curve (the Hill slope).

[2] = MTT assay for host cell cytotoxicity; assay type: cell-based; details: human, HFF cells (freshly confluent), mean ± SD (n = 2)
Description: The MTT assay was used to measure the cytotoxicity of the small molecules against the HFF cells as described. Briefly, freshly confluent HFF cells were incubated for 48 h in a 96-well culture plate at 37 °C in a humidified incubator (5% CO2 atmosphere) in the presence of increasing concentrations of compounds (total volume 200 uL). A 10 μL quantity of MTT reagent (Sigma Aldrich) prepared in complete DMEM medium was then added to each well, and incubation continued for a further 3 h. 150 μL of the medium containing the MTT reagent was then removed from each well and replaced with 150 μL DMSO. Plates were then incubated room temperature in the dark for 20 min, after which absorbance for each well was measured at 570 nm. Data were analysed in GraphPad Prism 9 software.

TgIMPα:T-ag-NLS-GFP = TgIMPα:T-ag-NLS-GFP (Toxoplasma gondii, UniProt A0A125YID0); assay: AlphaScreen binding assay, inhibition of TgIMPα binding to T-ag-NLS-GFP
Description: as §2, §3

[3] = tested on: T. gondii RH strain expressing a luciferase reporter (RH-Fluc) tachyzoites; assay: T. gondii tachyzoite growth inhibition assay (luciferase) in HFF host cells; assay type: cell-based; details: 48 h, luminescence, mean ± SD (n = 3)
Description: A T. gondii RH strain expressing a luciferase reporter (RH-Fluc) was used to assess the effect of the inhibitors on growth as described. T. gondii tachyzoites were maintained and cultured at 37 °C in 5% CO2 in a humidified incubator using primary human foreskin fibroblasts (HFF, ATCC) maintained in Dulbecco’s modified Eagle medium (DMEM) (GibcoTM, Waltham, MA, USA) supplemented with 3.7 g/L sodium bicarbonate and 2.38 g/L HEPES, 10% Cosmic Calf serum (HycloneTM, Logan, UT, USA) and 20 mg/L gentamicin [46, 47]. Growth inhibition was monitored by luminescence, where 100 μL of culture medium without or with inhibitors, followed by 100 µL of DMEM containing 5000 parasites, were added to confluent monolayers of HFF cells in 96-well culture dishes (Eppendorf, Hamburg, Germany). After 48 h, 150 µL of the culture medium was discarded from each well, and 10 µL lysis buffer was added to lyse the parasites, followed by 50 μL of 2× luciferase assay reagent (Promega, Madison, WI, USA). Luminescence was then measured directly for 10 s using a Varioskan™ LUX multimode microplate reader (Thermo Fisher Scientific, Waltham, MA, USA). […]

PfIMPα [4] = molecular target: T3, PfIMPα (Plasmodium falciparum, UniProt Q8IAW0); assay: Far-UV CD spectroscopy, PfIMPα; assay type: binding; details: 30 or 80 μM compound
Description: as §1

TgIMPα:MmIMPβ1 = TgIMPα:MmIMPβ1 (Toxoplasma gondii, UniProt A0A125YID0); assay: AlphaScreen binding assay, inhibition of TgIMPα binding to MmIMPβ1
Description: as §2, §3

P. falciparum 3D7 strain = assay: Drug susceptibility assay for P. falciparum using HRP2 sandwich ELISA; assay type: cell-based; details: read-out: IC50 inhibition of P. falciparum parasites in culture
Description: The P. falciparum 3D7 strain was cultured and maintained according to the standard procedures with minor modifications. Cultures were maintained in RPMI 1640 (GibcoTM, Waltham, MA, USA) supplemented with 0.5% Albumax (GibcoTM), 50 mg/L hypoxanthine (Sigma-Aldrich), 2 gm/L D-glucose (Sigma-Aldrich), 2 gm/L sodium bicarbonate (Sigma-Aldrich), and 56 mg/L of gentamicin (Abbott, Chicago, IL, USA). Blood for parasite cultures was procured from volunteer blood donors with approval from the Institute Ethical Committee.
Samples from the continuous culture of P. falciparum were synchronised to obtain predominant rings of 0.25% parasitemia at 3% haematocrit. Compounds were made at a stock concentration of 10 mM in 100% DMSO, with the FDA-approved antimalarial dihydroartemisinin (a kind gift from IPCA Laboratories, Mumbai, India) as a control. Compound dilutions were made in RPMI 1640 to obtain the desired final test concentrations for the IC50 analysis.
The HRP2-sandwich ELISA assay was performed according to the standard protocol. Briefly, the PfHRP2 protein concentration in the culture wells, indicative of the level of parasitemia, is measured using a sandwich ELISA technique. Serial 2-fold dilutions of compounds (25 µL/well) were manually dispensed into standard 96-well microculture plates (Eppendorf). Subsequently, 200 µL of P. falciparum culture at 0.25% parasitemia (3% haematocrit) was added to each well. The plates were then incubated for 72 h at 37 °C in 5% CO2 in a humidified incubator. Plates were then subjected to freeze–thaw to achieve complete haemolysis. PfHRP2 levels in control and test samples were measured using a horseradish peroxidase enzyme-linked immunosorbent assay at 450 nm. GraphPad Prism 9.2.0 was used to perform non-linear regression analysis to determine the IC50 values.
as §3

MmIMPα [5] = molecular target: T1, MmIMPα; assay: Intrinsic tryptophan fluorescence assay, MmIMPα; assay type: binding; details: pooled, mean ± SEM (n = 3); IMPα 1 µM, 340 nm
Description: (§4) Tryptophan fluorescence spectroscopy experiments were performed using a JASCO Fluorescence Spectrophotometer (JASCO, Hachioji, Tokyo, Japan) (0.5 mL quartz cuvette), with a fixed excitation wavelength of 295 nm and emission spectra collected between 310 and 400 nm with a slit width of 5 nm at 25 °C. Increasing concentrations of compounds in DMSO were incubated with the IMPαs (1 µM) in PBS for 5 min at room temperature prior to measurement. Data from three independent experiments were analysed using GraphPad Prism 10 (San Diego, CA, USA). Non-linear regression analysis was used to fit the one-site binding curves using the equation: y = Bmax * x/(Kd + x), where Bmax represents the maximum binding capacity and Kd is the dissociation constant, reflecting the concentration of ligand at which half-maximal binding is achieved.

TgIMPα [6] = molecular target: T4, TgIMPα (Toxoplasma gondii, UniProt A0A125YID0); assay: Far-UV CD spectroscopy, TgIMPα; assay type: binding; details: 30 or 80 μM compound
Description: as §1

MmIMPα:MmIMPβ1 = molecular target: T5, MmIMPα:MmIMPβ1 (Mus musculus, UniProt P52293); assay: AlphaScreen binding assay, inhibition of MmIMPα binding to MmIMPβ1
T5 construct: GST; made in house

PfIMPα:TGS1-NLS-GFP = PfIMPα:TGS1-NLS-GFP (Plasmodium falciparum, UniProt Q8IAW0); assay: AlphaScreen binding assay, inhibition of PfIMPα binding to TGS1-NLS-GFP; design: species or system P. falciparum
TgIMPα [7] = molecular target: T4, TgIMPα; assay: Intrinsic tryptophan fluorescence assay, TgIMPα; assay type: binding
Description: as §4

PfIMPα [8] = molecular target: T3, PfIMPα; assay: Intrinsic tryptophan fluorescence assay, PfIMPα; assay type: binding
Description: as §4

[9] = single experiment of Figure 1b, quadruplet wells
[10] = pooled, mean ± SEM (n = 3), MmIMPβ1 30 nM, IMPα 30 nM
[11] = single typical experiment of Figure 2, quadruplet wells
[12] = Plasmodium falciparum, 3D7, 72 h, asexual stages, pooled, mean ± SD (n = 3)
[13] = Plasmodium falciparum, 3D7, 72 h, single typical experiment of Figure 5, duplicate
[14] = pooled, mean ± SEM (n = 3), IMPα 1 µM, 340 nm
[15] = single typical set of measurements, Figure 4b

T3 sequence (Q8IAW0 entry or part of it): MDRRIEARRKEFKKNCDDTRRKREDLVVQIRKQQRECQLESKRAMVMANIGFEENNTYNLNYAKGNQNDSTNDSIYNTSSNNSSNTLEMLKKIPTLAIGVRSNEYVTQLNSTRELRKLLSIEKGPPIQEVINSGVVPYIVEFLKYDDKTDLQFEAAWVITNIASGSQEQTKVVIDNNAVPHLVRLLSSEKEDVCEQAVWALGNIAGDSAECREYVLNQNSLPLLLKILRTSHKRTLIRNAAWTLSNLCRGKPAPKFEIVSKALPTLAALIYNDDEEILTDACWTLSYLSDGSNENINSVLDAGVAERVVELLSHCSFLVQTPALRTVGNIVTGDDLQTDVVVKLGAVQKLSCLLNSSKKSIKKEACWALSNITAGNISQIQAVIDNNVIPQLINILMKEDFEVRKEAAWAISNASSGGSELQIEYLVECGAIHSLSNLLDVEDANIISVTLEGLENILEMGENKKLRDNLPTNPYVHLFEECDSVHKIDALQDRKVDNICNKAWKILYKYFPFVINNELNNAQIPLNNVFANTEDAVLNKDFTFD
T4 sequence (A0A125YID0 entry or part of it): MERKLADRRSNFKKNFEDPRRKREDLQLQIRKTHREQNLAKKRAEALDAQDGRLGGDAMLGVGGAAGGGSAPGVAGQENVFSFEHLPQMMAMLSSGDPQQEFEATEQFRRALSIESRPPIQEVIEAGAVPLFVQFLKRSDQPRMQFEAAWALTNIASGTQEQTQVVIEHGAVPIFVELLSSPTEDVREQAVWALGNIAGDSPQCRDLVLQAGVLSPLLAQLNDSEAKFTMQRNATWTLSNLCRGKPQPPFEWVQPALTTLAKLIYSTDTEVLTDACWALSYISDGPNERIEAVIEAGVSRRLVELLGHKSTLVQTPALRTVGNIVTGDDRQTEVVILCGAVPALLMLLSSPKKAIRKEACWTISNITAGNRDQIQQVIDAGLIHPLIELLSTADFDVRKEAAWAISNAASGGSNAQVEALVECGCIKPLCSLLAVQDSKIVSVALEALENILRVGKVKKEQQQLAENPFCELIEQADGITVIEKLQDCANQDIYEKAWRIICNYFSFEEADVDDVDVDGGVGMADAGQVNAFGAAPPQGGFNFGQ
TgIMPα:MmIMPβ1, sequence (P70168 whole entry): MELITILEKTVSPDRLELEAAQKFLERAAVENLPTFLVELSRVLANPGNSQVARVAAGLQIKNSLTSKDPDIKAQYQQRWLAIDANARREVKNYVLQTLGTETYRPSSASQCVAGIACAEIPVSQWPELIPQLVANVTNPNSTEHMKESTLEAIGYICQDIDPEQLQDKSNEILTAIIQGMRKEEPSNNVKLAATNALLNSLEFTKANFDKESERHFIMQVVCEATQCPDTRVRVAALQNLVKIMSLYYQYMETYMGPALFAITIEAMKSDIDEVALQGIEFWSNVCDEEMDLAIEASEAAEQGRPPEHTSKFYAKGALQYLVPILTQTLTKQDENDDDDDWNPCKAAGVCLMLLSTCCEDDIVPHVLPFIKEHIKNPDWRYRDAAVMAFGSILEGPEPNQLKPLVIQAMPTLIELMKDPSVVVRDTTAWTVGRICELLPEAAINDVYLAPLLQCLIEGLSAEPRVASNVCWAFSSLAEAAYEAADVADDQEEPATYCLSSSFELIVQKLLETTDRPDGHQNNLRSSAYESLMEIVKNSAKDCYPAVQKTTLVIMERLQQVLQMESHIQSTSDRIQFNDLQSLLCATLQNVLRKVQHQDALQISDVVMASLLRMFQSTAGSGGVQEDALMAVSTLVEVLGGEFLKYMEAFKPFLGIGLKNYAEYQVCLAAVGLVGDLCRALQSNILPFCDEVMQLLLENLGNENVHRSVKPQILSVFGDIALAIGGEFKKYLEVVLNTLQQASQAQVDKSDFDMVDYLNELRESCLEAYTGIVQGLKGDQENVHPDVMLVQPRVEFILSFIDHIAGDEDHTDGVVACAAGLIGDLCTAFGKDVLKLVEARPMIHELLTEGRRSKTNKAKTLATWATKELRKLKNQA
TgIMPα:MmIMPβ1, sequence (A0A125YID0 entry or part of it): as the sequence (A0A125YID0 entry or part of it) above
PfIMPα:MmIMPβ1, sequence (Q8IAW0 entry or part of it): as the sequence (Q8IAW0 entry or part of it) above
PfIMPα:MmIMPβ1, sequence (P70168 whole entry, further chain, the tested form may be a part): as the sequence (P70168 whole entry) above
PfIMPα:TGS1-NLS-GFP, sequence (Q8IAW0 entry or part of it): as the sequence (Q8IAW0 entry or part of it) above
TgIMPα:T-ag-NLS-GFP, sequence (A0A125YID0 entry or part of it): as the sequence (A0A125YID0 entry or part of it) above

**Q.** What does the source list for `CO/N=C1\C[C@]2(C[C@@H]3C[C@@H](C/C=C(\C)C[C@@H](C)/C=C/C=C4\CO[C@@H]5[C@H](O)C(C)=C[C@@H](C(=O)O3)[C@]45O)O2)O[C@H](/C(C)=C/C(C)C)[C@H]1C` [Moxidectin, moxidectin]?
**A.** Effect on α-helicity of MmIMPα (CD spectra) (MmIMPα [1]): concentration-dependent reduction in α-helicity; IC50 (MmΔIBBIMPα:T-ag-NLS-GFP; pooled, mean ± SEM (n = 3), IMPα 5 nM, NLS protein 30 nM, read-out: IC50 inhibition of MmΔIBBIMPα:Tag-NLS-GFP binding): 3.6 ± 0.5 µM; IC50 (MmΔIBBIMPα:T-ag-NLS-GFP; [9]): 2.8 µM; IC50 (PfIMPα:MmIMPβ1; [10]): 3.4 ± 0.4 µM; IC50 (PfIMPα:MmIMPβ1; [11]): 3.8 µM; CC50 at 48 h [2]: ~10 µM; IC50 (TgIMPα:T-ag-NLS-GFP; pooled, mean ± SEM (n = 3), IMPα 5 nM, NLS protein 30 nM, read-out: IC50 inhibition of TgIMPα:Tag-NLS-GFP binding): 3.8 ± 0.8 µM; IC50 (TgIMPα:T-ag-NLS-GFP; [9]): 3.6 µM; IC50 [3]: 35 ± 3.1 µM; IC50 ([3]; Toxoplasma gondii): 30 to 35 µM; Effect on α-helicity of PfIMPα (CD spectra) (PfIMPα [4]): concentration-dependent reduction in α-helicity; IC50 (TgIMPα:MmIMPβ1; [10]): 2700 ± 200 nM; IC50 (TgIMPα:MmIMPβ1; [11]): 3200 nM; IC50 (P. falciparum 3D7 strain; [12]): 1000 nM; IC50 (P. falciparum 3D7 strain; [13]): 800 nM; IC50 (P. falciparum 3D7 strain; asexual stages, 72 h, pooled, mean ± SD (n = 3)): 900 ± 100 nM; Kd (MmIMPα [5]): 4.1 ± 0.2 µM; Effect on α-helicity of TgIMPα (CD spectra) (TgIMPα [6]): concentration-dependent reduction in α-helicity; IC50 (MmIMPα:MmIMPβ1; [10]): ~4 µM and 4 µM; IC50 (MmIMPα:MmIMPβ1; [11]): 4.7 µM; IC50 (PfIMPα:TGS1-NLS-GFP; pooled, mean ± SEM (n = 3), IMPα 5 nM, NLS protein 30 nM): 4.8 ± 0.4 µM; IC50 (PfIMPα:TGS1-NLS-GFP; [9]): 4.6 µM; Kd (TgIMPα [7]; [14]): 19 ± 2.2 µM; Kd (TgIMPα [7]; [15]): 19.3 µM; Kd (PfIMPα [8]; [14]): 7.8 ± 1.2 µM; Kd (PfIMPα [8]; [15]): 8.3 µM

**Q.** Which IC50 (P. falciparum 3D7 strain; [12]) does the source give for `C[C@H]1[C@@H](O)O[C@@H]2O[C@@]3(C)CC[C@H]4[C@H](C)CC[C@@H]1[C@@]24OO3` [DHA, dihydroartemisinin] here?
**A.** 1 ± 0.5 nM

**Q.** And the IC50 (P. falciparum 3D7 strain; [13])?
**A.** 0.7 nM
